Measured values published in article PMC5078989, “Targeted inhibition of the COP9 signalosome for treatment of cancer” (Nature Communications, 2016).

System: panel of cancer cell lines
Assay: Cell viability (CellTiter-Glo) dose-response across cancer cell line panel;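 on EC50: after 72 h compound incubation with CellTiter-Glo ATP readout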
Type: cell-based, human
Details: for EC50: Homo sapiens
Source text: Next, we explored the effect of CSN5 inhibition on the viability of cancer cells. To obtain a comprehensive picture, we generated dose–response curves with a CSN5 inhibitor across more than 500 cancer cell lines in a previously described standardized setting[47] (Supplementary Data 1).
A standardized CellTiter-Glo Assay (Promega #G7570) based on the quantification of ATP was applied according to the manufacturer's protocol to measure the amount of viable cells in culture. In brief, cells were seeded into 384-well plates at optimal density for each cell line. After 4 h, compounds were added at different concentrations in growth medium and incubated for another 72 h in a humidifying chamber at 37 °C and 5% CO2. […] EC50 values were calculated from the plot of percentage of inhibition versus inhibitor concentration using the nonlinear regression analysis software Origin 7.5SR6 (OriginLab Corp.).

CC(C)C[C@H](NC(=O)[C@H](Cc1ccccc1)NC(=O)c1cnccn1)B(O)O [Bortezomib]
AMAX (22Rv1): -94.313
AMAX (59M): -95.8554
AMAX (769-P): -95.8011
AMAX (786-O): -95.6334
AMAX (A4/Fuk): -96.8168
AMAX (A101D): -96.1689
AMAX (BV-173): -96.2276
AMAX (CAL-54): -95.8702
AMAX (CAL-78): -96.6244
AMAX (CAS-1): -94.9696
AMAX (CMK-11-5): -95.7224
AMAX (CML-T1): -97.037
AMAX (COLO 668): -97.3658
AMAX (COR-L88): -87.7017
AMAX (COR-L279): -96.4332
AMAX (COV318): -92.9911
AMAX (COV504): -89.7599
AMAX (DK-MG): -95.0625
AMAX (DMS 273): -96.4842
AMAX (DOHH-2): -97.4407
AMAX (EM-2): -96.8249
AMAX (GCIY): -97.1531
AMAX (GR-M): -97.3342
AMAX (HEC-6): -96.6882
AMAX (HEC-50B): -86.5583
AMAX (HEC-151): -96.6048
AMAX (HEC-265): -95.5903
AMAX (HGC-27): -96.7322
AMAX (HLC-1): -96.4119
AMAX (HMC-1-8): -96.1255
AMAX (HTK-): -96.3221
EC50 (8-MG-BA, cell line 8-MG-BA): 18.9 nM
EC50 (22Rv1, 22Rv1): 14.7 nM
EC50 (59M): 13.5 nM
EC50 697: 9 nM
EC50 (769-P): 8.84 nM
EC50 (786-0, 786-O): 8.79 nM
EC50 (1321-N1, 1321N1): 12 nM
EC50 (8305C): 7.18 nM
EC50 (23132/87): 7.39 nM
EC50 (A4/Fuk): 2.23 nM
EC50 (A101D): 3.29 nM
EC50 (A 172, A172): 8.05 nM
EC50 (A204, A-204): 5.28 nM
EC50 (A253, A-253): 9.94 nM
EC50 (A549, A549): 30.8 nM
EC50 (A673, A-673): 5.83 nM
EC50 (A2058, A2058): 19.4 nM
EC50 (A2780, A2780): 10.7 nM
EC50 (A-375, A-375): 12.1 nM
EC50 (ABC-1, ABC-1): 3.02 nM
EC50 (ACC-MESO-1, ACC-MESO-1): 23.6 nM
EC50 (ACHN): 7.43 nM
EC50 (AMO1, AMO-1): 2.18 nM
EC50 (AN3-CA, cell line AN3 CA): 15.5 nM
EC50 (AU565, AU565): 6.2 nM
EC50 (BFTC-909, BFTC-909): 20.9 nM
EC50 (BHY): 7.83 nM
EC50 (BICR 6): 18.4 nM
EC50 (BICR 16): 38.8 nM
EC50 (BICR 22): 12.3 nM
EC50 (BL-41, BL-41): 1.54 nM
EC50 (BT-20, BT-20): 26.8 nM
EC50 (BT-549, BT-549): 5.76 nM
EC50 (BV-173, BV-173): 8.13 nM
EC50 (BXPC-3, BxPC-3): 15.1 nM
EC50 (C32, C32): 13 nM
EC50 (CAKI-1, Caki-1): 12 nM
EC50 (CAKI-2, cell line Caki-2): 22.8 nM
EC50 (CAL-29): 16.3 nM
EC50 (CAL-51, CAL-51): 17.9 nM
EC50 (CAL-54, CAL-54): 9.06 nM
EC50 (CAL-78): 7.82 nM
EC50 (CAL-120, CAL-120): 7.23 nM
EC50 (CAMA-1, CAMA-1): 8.61 nM
EC50 (CAPAN-1, Capan-1): 9.26 nM
EC50 (CAS-1): 16.6 nM
EC50 (CCK-81): 9.52 nM
EC50 (CCRF-CEM): 3.12 nM
EC50 (CFPAC-1, CFPAC-1): 6.34 nM
EC50 (CHL-1, CHL-1): 9.51 nM
EC50 (CHP-212, cell line CHP-212): 5.04 nM
EC50 (CMK): 3.98 nM
EC50 (CMK-11-5, CMK-11-5): 6.27 nM
EC50 (CML-T1, CML-T1): 3.65 nM
EC50 (COLO 205, COLO 205): 35.7 nM
EC50 (COLO 320, COLO-320): 19 nM
EC50 (COLO 699, COLO-699): 9.17 nM
EC50 (COLO 704, COLO-704): 5.98 nM
EC50 (COLO 775): 5.24 nM
EC50 (COLO 792): 5.11 nM
EC50 (COLO-668, COLO 668): 13.2 nM
EC50 (COLO-680N): 12.3 nM
EC50 (COLO-741, COLO 741): 11 nM
EC50 (COLO-800, cell line COLO-800): 10.1 nM
EC50 (COLO-829, COLO 829): 16.6 nM
EC50 (COR-L23, cell line COR-L23): 17.8 nM
EC50 (COR-L47, COR-L47): 9.05 nM
EC50 (COR-L88, COR-L88): 29.3 nM
EC50 (COR-L279, COR-L279): 7.34 nM
EC50 (COV318, COV318): 6.86 nM
EC50 (COV504, COV504): 7.72 nM
EC50 (COV644): 6.9 nM
EC50 (Calu-1, Calu-1): 17.6 nM
EC50 (Calu-3, Calu-3): 4.34 nM
EC50 (Calu-6, Calu-6): 17.8 nM
EC50 (Caov-3, Caov-3): 7.49 nM
EC50 (Ci-1, CI-1): 4.61 nM
EC50 (DAN-G): 8.14 nM
EC50 (DB): 3.38 nM
EC50 (DBTRG-05MG, cell line DBTRG-05MG): 34.7 nM
EC50 (DK-MG): 5.7 nM
EC50 (DLD-1, DLD-1): 6.51 nM
EC50 (DMS-79, cell line DMS 79): 13.6 nM
EC50 (DMS-114, DMS 114): 14 nM
EC50 (DMS-273, DMS 273): 6.64 nM
EC50 (DOHH-2, DOHH-2): 4.61 nM
EC50 (DU-145, DU 145): 17.5 nM
EC50 (DU-4475, DU4475): 5.05 nM
EC50 (DV-90, DV-90): 22.4 nM
EC50 (Daoy): 6.56 nM
EC50 (Detroit 562, cell line Detroit 562): 11.4 nM
EC50 (EBC-1, EBC-1): 8.25 nM
EC50 (EFM-19, EFM-19): 22.5 nM
EC50 (EFM-192A): 25.5 nM
EC50 (EM-2, EM-2): 1.63 nM
EC50 (EN): 15 nM
EC50 (EOL1, EOL-1): 6.8 nM
EC50 (ES-2, ES-2): 10.4 nM
EC50 (ESS-1, ESS-1): 8.62 nM
EC50 (FU-OV-1): 12.5 nM
EC50 (FaDu, cell line FaDu): 16.5 nM
EC50 (G-361, G-361): 2.83 nM
EC50 (G-401, G-401): 8.69 nM
EC50 (G-402, G-402): 5.03 nM
EC50 (GA-10, cell line GA-10): 15.5 nM
EC50 (GAMG, cell line GAMG): 17.7 nM
EC50 (GCIY): 6.77 nM
EC50 (GMS-10, cell line GMS-10): 11.2 nM
EC50 (GOS-3): 6.46 nM
EC50 (GP2d): 14.7 nM
EC50 (GR-M): 7.08 nM
EC50 (Granta-519, GRANTA-519): 3.79 nM
EC50 (HARA): 11.9 nM
EC50 (HCC15, HCC-15): 23.1 nM
EC50 (HCC38, HCC38): 3.99 nM
EC50 (HCC44, HCC-44): 19.7 nM
EC50 (HCC70, HCC70): 7.14 nM
EC50 (HCC95, HCC-95): 14.1 nM
EC50 (HCC366, HCC-366): 11.1 nM
EC50 (HCC827, HCC827): 8.42 nM
EC50 (HCC1143, HCC1143): 15.1 nM
EC50 (HCC1171, HCC-1171): 27.1 nM
EC50 (HCC1187, HCC1187): 6.22 nM
EC50 (HCC1395, HCC1395): 17.5 nM
EC50 (HCC1419, HCC1419): 28.6 nM
EC50 (HCC1428, HCC1428): 396 nM
